US20020049151A1, “Therapeutic approaches to diseases by suppression of the NURR subfamily of nuclear transcription factors” (priority 2000, published 2002)
Ends that are not written are not given here.

Legend:
NURR1 mRNA [1] = assay: Northern blot of NURR1 mRNA in primary synoviocytes; format: cell-based, human; details: for effect on IL-1β-induced NURR1 mRNA: IL-1β 10 ng/ml, indomethacin 2 μM; for NURR1 mRNA levels after stimulation: 20 ng/ml PMA, 10 ng/ml TNFα, IL-1β, IL-6, 1 μM PGE2, CRH
Experimental: (§1) Regulation of gene expression by the protein kinase A and C pathways represent important signaling events in RA synoviocytes (Ben-Av et al., 1995; Crofford et al., 1994; Firestein and Manning, 1999). […] To investigate the involvement of the protein kinase C signaling pathways in NURR regulation, synoviocytes were treated with phorbal myristic acetate (PMA). […] In contrast, dexamethasone had little effect on forskolin- or PMA-induced NUR77 levels.
(§2) In FIG. 4 total RNA was extracted and northern blot analysis was performed. Filters were hybridized with a cDNA for NURR1 or NUR77 and also with GAPDH to control for loading and transfer. Synovial explants were left untreated [C] or incubated with 10^−8M CRH for the indicated times. (FIG. 4A) Confluent monolayers of primary synoviocytes were left untreated [C] or pretreated with 10^−8M dexamethasone (DEX) for 2 h prior to the addition of 25μM forskolin (FOR) or 20 ng/ml of phorbal myristic acetate (PMA). (FIG. 4B)
Therefore the pathological importance of the NURR transcription factors in inflammatory joint disease was further examined by determining the ability of pro-inflammatory agonists to regulate NURR transcript levels in primary synoviocytes and synovium explant tissue (FIG. 6).
(§3) For FIG. 6 each membrane was reprobed with a GAPDH cDNA to control for loading and transfer. NURR1 mRNA levels were measured by northern analysis using total RNA extracted from synoviocytes left untreated [C] or cultured for the time indicated with (A) TNFα (10 ng/ml) in the presence or absence of pre-treatment with 10^−8M dexamethasone (DEX). (B) IL-1β(10 ng/ml) in the presence or absence of pretreatment with 2 μM indomethacin (INDO) or 10^−8M DEX. (C) or synovial explants cultured with IL-6 (10 ng/ml). (D) 1 μM PGE2. (E) 25 μM forskolin (FOR) or […] for 1h in the absence or presence of 5 µg/ml cycloheximide (CHX).
Northern analysis of primary RA synoviocytes were untreated (lane 1) or treated for 1 hour with TNFα (lane 2), IL-1β (lane 3), and PGE2 (lane 4). TNFα and IL-1β were used at a concentration of 10 ng/mL and PGE2 was at a concentration of 10^-6 M.
(§4) Total RNA was isolated from cultured primary synoviocytes or synovial explants. RNA was quantitated by UV absorption and 10 μg of total RNA were electrophoresed on a standard northern gel and transferred to nylon membrane (BioRad, Richmond, Calif.). NURR1 and NUR77 cDNA probes (Murphy and Conneely, 1997), spanning the amino terminal region to avoid cross-hybridization, were radiolabeled to a high specific activity using [α-^32P] dCTP and a random primer labeling system (Promega, Madison, Wis.). Blots were exposed to film at −80° C. using intensifying screens and autoradiographic intensity was quantitated using an imaging densitometer.

NUR77 mRNA [2] = assay: Northern blot of NUR77 mRNA in primary synoviocytes; format: cell-based, human; details: 25 μM forskolin, 20 ng/ml PMA, CRH
Experimental: as §1
In FIG. 4 total RNA was extracted and northern blot analysis was performed. Filters were hybridized with a cDNA for NURR1 or NUR77 and also with GAPDH to control for loading and transfer. Synovial explants were left untreated [C] or incubated with 10^−8M CRH for the indicated times. […]
Dexamethasone (10^−8M) inhibited the TNFα, IL-1β (FIGS. 6A and B) and PGE2-stimulated NURR1 MRNA in synoviocytes and CRH-induced NURR1 expression in synovium explants. […] For each northern blot shown in FIG. 6, NUR77 mRNA levels were also analyzed. […]
Total RNA was isolated from cultured primary synoviocytes or synovial explants. RNA was quantitated by UV absorption and 10 μg of total RNA were electrophoresed on a standard northern gel and transferred to nylon membrane (BioRad, Richmond, Calif.). […] Blots were exposed to film at −80° C. using intensifying screens and autoradiographic intensity was quantitated using an imaging densitometer.

CRH R1 = details: cited from earlier work
NURR1 mRNA [3] = assay: Northern blot of NURR1 mRNA in synovium explants; format: cell-based, human; details: CRH 10^−8 M
Experimental: (§5) To determine whether the NURR subfamily contribute to CRH signaling in a pathological context, freshly excised RA (FIG. 4A) and PsA synovium explants were incubated with CRH (10^−8 M) and examined for its ability to induce expression of NURR1 and NUR77 transcripts. […] Furthermore, analysis of synovium explants indicates higher endogenous and CRH-inducible NURR1 mRNA compared to NUR77 transcript levels.
as §2, §3, §4

NUR77 mRNA [4] = assay: Northern blot of NUR77 mRNA in synovium explants; format: cell-based, human; details: CRH 10^−8 M
Experimental: as §5, §2, §4

[5] = dexamethasone 10^−8M, cycloheximide 5 µg/ml

C[C@@H]1C[C@@H]([C@H](O)CC2CC(=O)NC(=O)C2)C(=O)[C@@H](C)C1 [Cycloheximide, cycloheximide]
effect on forskolin-induced NURR1 expression (NURR1 mRNA [1]; 25 μM forskolin, dexamethasone 10^−8M pre-treatment 2 h, cycloheximide 5 µg/ml): robustly enhanced
effect on IL-1β-induced NURR1 mRNA (NURR1 mRNA [1]; dexamethasone 10^−8M): robustly enhanced
effect on TNFα-stimulated NURR1 mRNA (NURR1 mRNA [1]; TNFα 10 ng/ml, dexamethasone 10^−8M): robustly enhanced
basal / endogenous NURR1 expression (NURR1 mRNA [1]; [5]): increased
effect on PGE2-stimulated NURR1 mRNA (NURR1 mRNA [1]; dexamethasone 10^−8M, cycloheximide 5 µg/ml, 1M PGE2 for 1h): robustly enhanced

CCCCCCCCCCCCCC(=O)O[C@@H]1[C@@H](C)[C@@]2(O)[C@@H](C=C(CO)C[C@]3(O)C(=O)C(C)=C[C@@H]23)[C@@H]2C(C)(C)[C@]12OC(C)=O [PMA, phorbal myristic acetate, reference compound]
NURR1 mRNA levels after stimulation (NURR1 mRNA [1]; 25 μM forskolin): no stimulatory effects
NUR77 mRNA levels after stimulation (NUR77 mRNA [2]): modestly up-regulated

CCCCN(CC)c1nc(C)nc2c1c(C)c(C)n2-c1c(C)cc(C)cc1C [antalarmin]
CRH antagonism at sites of inflammation in vivo (CRH R1): clinically effective CRH antagonist at sites of inflammation

C[C@@H]1C[C@H]2[C@@H]3CCC4=CC(=O)C=C[C@]4(C)[C@@]3(F)[C@@H](O)C[C@]2(C)[C@@]1(O)C(=O)CO [dexamethasone]
basal / endogenous NURR1 expression (NURR1 mRNA [1]; [5]): no effect

COc1ccc2c(c1)c(CC(=O)O)c(C)n2C(=O)c1ccc(Cl)cc1 [indomethacin]
effect on IL-1β-induced NURR1 mRNA (NURR1 mRNA [1]; dexamethasone 10^−8M): not blocked

CRH: Corticotropin Releasing Hormone, a major regulator of the hypothalamic pituitary axis (SEEPPISLDLTFHLLREVLEMARAEQLAQQAHSNRKLMEII; ends and bridges not checked; UniProt P06850 154-194, looked up)
NURR1 mRNA induction in synovium explants (NURR1 mRNA [3]; RA and PsA synovium explants, IL-6 10 ng/ml): rapidly induced
time to NURR1 mRNA induction (NURR1 mRNA [3]; synovium explants): ≤ 1 h
time to decline of NURR1 mRNA to basal levels (NURR1 mRNA [3]; synovium explants): ≤ 3 h
NUR77 mRNA induction in synovium explants (NUR77 mRNA [4]; RA and PsA synovium explants): rapidly induced
time to NUR77 mRNA induction (NUR77 mRNA [4]; synovium explants): ≤ 1 h
time to decline of NUR77 mRNA to basal levels (NUR77 mRNA [4]; synovium explants): ≤ 3 h
NURR1 mRNA levels after stimulation (NURR1 mRNA [1]; 25 μM forskolin): not observed
NUR77 mRNA levels after stimulation (NUR77 mRNA [2]): not observed
